In patent EP0170121A1, “2-Hydroxy-3-aryloxypropyl or 2-hydroxy-2-benzofuranyl ethyl tertiary amine having an anti-hyperglycaemic and/or anti-obesity activity” (BEECHAM GROUP PLC, priority 1984, dated 1986):
Counter-ions that a name gives are not always drawn.

Key:
[1] = system: Isolated Rat Atria; test: Effect of compounds on isolated rat atria (rate of right atrium, tension of left atrium); type: cell-based, Sprague-Dawley male rats; conditions: Krebs solution 32°C, up to 3x10-^5M; for effect on tension (electrically paced left atrium): isolated rat left atrium; for effect on rate (spontaneously beating right atrium): isolated rat right atrium
Protocol: Sprague-Dawley male rats (300-400 g) are killed and the right and left atria dissected out independently and mounted on a combined tissue holder/electrode. The tissues are then immersed in a glass bath containing Krebs solution maintained at 32 °C. The rate of the spontaneously beating right atrium (via an isometric tranducer and a ratemeter) and the tension of the electrically paced left atrium (via an isometric transducer) are recorded on an M19 chart recorder.
After an initial stabilization period, the tissues are exposed to a maximal concentration of isoprenaline (10^-6M). The tissues are then washed several times until rate and tension return to baseline level. A dose-response curve to the test compound is then carried out.

[2] = system: Male Sprague-Dawley rats; test: Effect on energy expenditure of rats (oxygen consumption, oral dosing); type: in vivo; conditions: deprived of food, p.o. in water, percentage of the rate of energy expenditure of the rats dosed with water, dose differs per compound (Dose mg/kg p.o.); for Mean Energy Expenditure (0-3h): 0-3h after dosing; for Mean Energy Expenditure (0-21h): 0-21h after dosing
Protocol: Male Sprague-Dawley rats each weighing between 170-200 g were deprived of food for 16 hours before, and during the experiment. Water was provided ad lib at all times. The compounds were administered orally in water to 3 or 4 rats. A further 4 rats were dosed orally with water. The rats were placed in boxes through which air was drawn and the oxygen content of the air leaving the boxes was measured. The energy expenditure of the rats was calculated for 3 hours and for 21 hours after dosing from the volume of air leaving the boxes and its oxygen content, following the principles described by J.B. de V. Weir, J. Physiol. (London) 109, 1-9 (1949). The results are expressed as a percentage of the rate of energy expenditure of the rats dosed with water.

[3] = system: Female CFLP mice; test: Hypoglycaemic activity: subcutaneous glucose load, area under blood glucose curve; type: in vivo; conditions: female CFLP mice fasted 24 hours; compound orally 30 minutes before glucose 1 g/kg s.c.; 2 hour period; versus control mice given water; dose differs per compound (Dose µmol/kg)
Protocol: Female CFLP mice, weighing approximately 25 g, were fasted for 24 hours prior to the study. The compounds under study were administered orally as an aqueous solution to each of 6 mice. 30 minutes later a blood sample (20 µl) was obtained from the tail for the analysis of blood glucose. Immediately after taking this blood sample, glucose (1 g/kg body weight) was administered subcutaneously to each mouse. 6 mice were given water as a control. Blood samples were then obtained from each mouse at 30 minute intervals for 120 minutes.
Compounds that produced a significant (p<0.05) reduction of blood glucose, compared with control mice given water, at any time interval, were considered active. The area under the blood glucose curve over the 2 hour period after the administration of the glucose was calculated for each compound and compared with the value for control animals.

[4] = system: Female CD1 mice; test: Effect on energy expenditure of mice (oxygen consumption, oral dosing); type: in vivo; conditions: p.o. in water, percentage of the rate of energy expenditure of the mice dosed with water, dose differs per compound (Dose mg/kg p.o.); for Mean Energy Expenditure (0-3h): 0-3h after dosing; for Mean Energy Expenditure (0-21h): 0-21h after dosing
Protocol: Female CD1 mice each weighing approximately 24 g were given food and water ad lib before and during the experiment. The compounds were dissolved in water and these solutions were administered orally to each of 12 mice. A further 12 mice were dosed orally with water. The mice were placed in groups of threes in boxes through which air was drawn and the oxygen content of the air leaving the boxes was measured. The energy expenditure of the mice was calculated for 3 and 21 hours after dosing from the volume of air leaving the boxes and its oxygen content, following the principles described by J.B. de V. Weir, J. Physiol. (London) 109, 1-9 (1949). The results are expressed as a percentage of the rate of energy expenditure of the mice dosed with water.

[5] = system: Female BALB/c mice; test: Anti-obesity activity: weight of parametrial fat pads after 3 days of compound in the diet; type: in vivo; conditions: compound in diet for 3 days, dose differs per compound (Dose mg/kg diet), mean of 9 values
Protocol: Female BALB/c mice were trained to feed on powdered oxoid for 1 week. They were then housed in threes and the compound under study was added to the diet for 3 days. Food was removed at 09.00h and the mice were killed at 11.00h. The parametrial fat pads were weighed as pairs. The result is a mean of 9 values.

Q: For `COC(=O)c1ccc(C[C@@H](C)N(C[C@H](O)COc2ccccc2)C[C@H](O)COc2ccccc2)cc1` [Example 1, Methyl 4-[(R)-2-[bis-[(S)-2-hydroxy-3-phenoxypropyl]amino]propyl]benzoate], which “effect on tension (electrically paced left atrium)” value (“effect on tension” for short) [1] is on record?
A: The value was “no effect”.

Q: What about the “effect on rate (spontaneously beating right atrium)” value (“effect on rate” below) [1] of the same molecule?
A: Its value is “no effect”.

Q: What about the “Mean Energy Expenditure (0-3h)” value [2] of the same molecule?
A: Its value is 115 percentage.

Q: And the “Mean Energy Expenditure (0-21h)” value [2]?
A: Its value is 114 percentage.

Q: And the “% Reduction in Area under Blood Glucose Curve” value (“% Reduction in Area” below) [3]?
A: The value was 28%.

Q: And the “Mean Energy Expenditure (0-3h)” value [4]?
A: The value was 132 percentage.

Q: What about the “Mean Energy Expenditure (0-21h)” value [4] of the same molecule?
A: The value was 107 percentage.

Q: What does the source list for `COC(=O)c1ccc(C[C@@H](C)N(C[C@H](O)COc2ccccc2)C[C@H](O)c2ccccc2)cc1` [Example 4, Methyl 4-[(R)-2-[N-[(R)-2-hydroxy-2-phenethyl]-N-[(S)-2-hydroxy-3-phenoxypropyl]amino]propyl]benzoate, hydrochloride, monohydrate]?
A: effect on tension (electrically paced left atrium) [1]: no effect; effect on rate (spontaneously beating right atrium) [1]: no effect; Mean Energy Expenditure (0-3h) [2]: 110 percentage; Mean Energy Expenditure (0-21h) [2]: 119 percentage; Percentage reduction in weight of parametrial fat pads compared with controls [5]: 25 Percentage; % Reduction in Area under Blood Glucose Curve [3]: 12%; Mean Energy Expenditure (0-3h) [4]: 145 percentage; Mean Energy Expenditure (0-21h) [4]: 120 percentage

Q: How did the “effect on tension” value [1] turn out when `CC(Cc1ccc(OCC(N)=O)cc1)N(CC(O)COc1ccccc1)CC(O)c1cccc(Cl)c1.Cl` (stereo not shown) [Example 8, 4-[2-[N-[2-(3-Chlorophenyl)-2-hydroxyethyl]-N-[2-hydroxy-3-phenoxypropyl]amino]propyl]phenoxyacetamide, hydrochloride] was run?
A: The value was “no effect”.

Q: And the “effect on rate” value [1]?
A: The value was “no effect”.

Q: What about the “Percentage reduction in weight of parametrial fat pads compared with controls” value (“Percentage reduction in weight” below) [5] of the same molecule?
A: Its value is 39 Percentage.

Q: And the “% Reduction in Area” value [3]?
A: Its value is 50%.

Q: And the “Mean Energy Expenditure (0-3h)” value [4]?
A: The value was 158 percentage.

Q: What about the “Mean Energy Expenditure (0-21h)” value [4] of the same molecule?
A: The value was 122 percentage.

Q: For `COC(=O)c1ccc(CC(C)N(CC(O)COc2ccccc2)CC(O)c2ccc(O)c(CO)c2)cc1` (stereo not shown) [Example 9, Methyl 4-[2-[N-[2-hydroxy-2-[4-hydroxy-3-hydroxymethylphenyl]ethyl]-N-[2-hydroxy-3-phenoxypropyl]amino]propyl] benzoate], which “Percentage reduction in weight” value [5] is on record?
A: Its value is 13 Percentage.

Q: What about the “% Reduction in Area” value [3] of the same molecule?
A: Its value is 34%.

Q: And the “Mean Energy Expenditure (0-3h)” value [4]?
A: The value was 111 percentage.

Q: And the “Mean Energy Expenditure (0-21h)” value [4]?
A: Its value is 106 percentage.

Q: How did the “Mean Energy Expenditure (0-3h)” value [2] turn out when `COC(=O)COc1ccc(CC(C)N(CC(O)COc2ccc(CC(N)=O)cc2)CC(O)c2cccc(Cl)c2)cc1` (stereo not shown) [Example 11, Methyl 4-[2-[N-[2-(3-chlorophenyl)-2-hydroxyethyl]-N-[2-hydroxy-3-(4-carboxamidomethyl)phenoxypropyl]amino]propyl] phenoxyacetate, hydrochloride] was run?
A: The value was 136 percentage.

Q: And the “Mean Energy Expenditure (0-21h)” value [2]?
A: The value was 111 percentage.

Q: What about the “Percentage reduction in weight” value [5] of the same molecule?
A: Its value is 16 Percentage.

Q: What about the “% Reduction in Area” value [3] of the same molecule?
A: Its value is 57%.

Q: And the “Mean Energy Expenditure (0-3h)” value [4]?
A: Its value is 120 percentage.

Q: And the “Mean Energy Expenditure (0-21h)” value [4]?
A: The value was 112 percentage.

Q: `Br.C[C@H](CCc1ccc(C(N)=O)cc1)N(C[C@H](O)COc1ccccc1)C[C@H](O)COc1ccccc1.O.O` [Example 13, 4-[(R)-3-[Bis-[(S)-2-hydroxy-3-phenoxypropyl]amino]butyl]-benzamide, hydrobromide, dihydrate] was tested. Which “Mean Energy Expenditure (0-3h)” value [2] did it give?
A: The value was 108 percentage.

Q: And the “Mean Energy Expenditure (0-21h)” value [2]?
A: The value was 106 percentage.

Q: What about the “% Reduction in Area” value [3] of the same molecule?
A: The value was 15%.

Q: And the “Mean Energy Expenditure (0-3h)” value [4]?
A: Its value is 103 percentage.

Q: What about the “Mean Energy Expenditure (0-21h)” value [4] of the same molecule?
A: The value was 105 percentage.

Q: Which “effect on tension” value [1] does the source give for `C[C@H](Cc1ccc(OCC(N)=O)cc1)N(C[C@H](O)COc1ccccc1)C[C@H](O)COc1ccccc1` [Example 14, 4-[(R)-2-[Bis-[(S)-2-hydroxy-3-phenoxypropyl]amino]propyl] phenoxyacetamide, hydrochloride] here?
A: The value was “no effect”.

Q: What about the “effect on rate” value [1] of the same molecule?
A: Its value is “no effect”.

Q: And the “Mean Energy Expenditure (0-3h)” value [2]?
A: The value was 127 percentage.

Q: What about the “Mean Energy Expenditure (0-21h)” value [2] of the same molecule?
A: Its value is 117 percentage.

Q: And the “% Reduction in Area” value [3]?
A: Its value is 20%.

Q: What about the “Mean Energy Expenditure (0-3h)” value [4] of the same molecule?
A: Its value is 140 percentage.

Q: And the “Mean Energy Expenditure (0-21h)” value [4]?
A: The value was 112 percentage.

Q: With `C[C@H](Cc1ccc(OCC(N)=O)cc1)N(C[C@H](O)COc1ccccc1)C[C@H](O)c1ccccc1` [Example 16, 4-[(R)-2-[N-[(R)-2-Hydroxy-2-phenethyl]-N-[(S)-2-hydroxy-3-phenoxypropyl]amino]propyl]phenoxyacetamide, hydrochloride, hemihydrate] as the molecule, how does the “Mean Energy Expenditure (0-3h)” value [2] read?
A: Its value is 141 percentage.

Q: What about the “Mean Energy Expenditure (0-21h)” value [2] of the same molecule?
A: The value was 119 percentage.

Q: What about the “Percentage reduction in weight” value [5] of the same molecule?
A: The value was 27 Percentage.

Q: And the “Mean Energy Expenditure (0-3h)” value [4]?
A: Its value is 151 percentage.

Q: And the “Mean Energy Expenditure (0-21h)” value [4]?
A: The value was 113 percentage.

Q: What does the source list for `CCOC(=O)COc1ccc(C[C@@H](C)N(C[C@H](O)COc2ccccc2)C[C@H](O)COc2ccccc2)cc1` [Example 17, Ethyl 4-[(R)-2-[bis-[(S)-2-hydroxy-3-phenoxypropyl]amino]propyl]phenoxyacetate, hydrochloride, hemihydrate]?
A: Mean Energy Expenditure (0-3h) [2]: 120 percentage; Mean Energy Expenditure (0-21h) [2]: 105 percentage; Percentage reduction in weight of parametrial fat pads compared with controls [5]: 37 Percentage

Q: With `CCOC(=O)COc1ccc(C[C@@H](C)N(C[C@H](O)COc2ccccc2)C[C@H](O)c2cccc(Cl)c2)cc1` [Example 18, Ethyl 4-[(R)-2-[N-[(R)-2-(3-chlorophenyl)-2-hydroxyethyl]-N-[(S)-2-hydroxy-3-phenoxypropyl]amino]propyl]phenoxyacetate, hemifumarate] as the molecule, how does the “Mean Energy Expenditure (0-3h)” value [2] read?
A: The value was 126 percentage.

Q: And the “Mean Energy Expenditure (0-21h)” value [2]?
A: Its value is 109 percentage.

Q: What about the “Percentage reduction in weight” value [5] of the same molecule?
A: Its value is 21 Percentage.

Q: What about the “% Reduction in Area” value [3] of the same molecule?
A: Its value is 45%.

Q: `C[C@H](Cc1ccc(OCCN)cc1)N(C[C@H](O)COc1ccccc1)C[C@H](O)c1ccccc1` [Example 20, 4-[(R)-2-[N-[(R)-2-Hydroxy-2-phenethyl]-N-[(S)-2-hydrpxy-3-phenoxypropyl]amino]propyl]phenoxyethylamine, dihydrochloride, hydrate] was tested. Which “Mean Energy Expenditure (0-3h)” value [2] did it give?
A: Its value is 112 percentage.

Q: What about the “Mean Energy Expenditure (0-21h)” value [2] of the same molecule?
A: The value was 110 percentage.

Q: And the “Percentage reduction in weight” value [5]?
A: Its value is 15 Percentage.

Q: And the “% Reduction in Area” value [3]?
A: Its value is 40%.

Q: And the “Mean Energy Expenditure (0-3h)” value [4]?
A: The value was 146 percentage.

Q: And the “Mean Energy Expenditure (0-21h)” value [4]?
A: Its value is 120 percentage.

Q: With `CCOC(=O)COc1ccc(C[C@@H](C)N(C[C@@H](O)COc2ccccc2)C[C@H](O)c2ccccc2)cc1` [Example 23, Ethyl 4-[(R)-2-[N-[(R-2-hydroxy-2-phenethyl]-N-[(R)-2-hydroxy-3-phenoxypropyl]amino]propyl]phenoxyacetate, hydrochloride] as the molecule, how does the “Mean Energy Expenditure (0-3h)” value [2] read?
A: Its value is 129 percentage.

Q: And the “Mean Energy Expenditure (0-21h)” value [2]?
A: The value was 111 percentage.

Q: What about the “Percentage reduction in weight” value [5] of the same molecule?
A: The value was 31 Percentage.
